From patent US20240116910A1, “Heterocycles as WIP1 Inhibitors” (PMV Pharmaceuticals, Inc., priority 2022, published 2024) come the findings set out here.

In the experiment the target is recombinant His-tag Wip1(2-420) protein (amino acids #2-420) (Homo sapiens (Human), UniProt O15297). In words: Wip1(2-420) phosphatase enzyme FDP assay. The class given is biochemical. As to conditions: fluorescein diphosphate (FDP) substrate, RT 2 hours, fluorescence Ex485/Em535; read-out: WIP1 (Truncated 2-420) FDP Assay: IC50.
recombinant His-tag Wip1(2-420) protein (amino acids #2-420), sequence (O15297 2-420): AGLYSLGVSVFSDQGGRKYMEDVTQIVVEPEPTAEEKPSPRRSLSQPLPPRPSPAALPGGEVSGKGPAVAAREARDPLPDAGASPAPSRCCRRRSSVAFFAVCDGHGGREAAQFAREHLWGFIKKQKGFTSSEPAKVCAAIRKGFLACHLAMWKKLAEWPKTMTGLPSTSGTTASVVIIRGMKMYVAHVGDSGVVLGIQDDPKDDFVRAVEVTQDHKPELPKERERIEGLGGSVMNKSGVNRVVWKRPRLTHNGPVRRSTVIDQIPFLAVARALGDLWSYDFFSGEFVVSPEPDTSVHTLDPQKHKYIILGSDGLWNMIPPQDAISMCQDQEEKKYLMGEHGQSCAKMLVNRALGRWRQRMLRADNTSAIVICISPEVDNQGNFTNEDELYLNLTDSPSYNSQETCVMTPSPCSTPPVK

By IC50 is commonly meant the midpoint of a concentration-inhibition curve. On to `C[C@@H](c1ccc(C(=O)N[C@@H](CC2CCCC2)C(=O)NC2CC2)s1)N1CCCc2ccc(Cl)cc21` [Compound 248, (2S)-2-({5-[(1S)-1-(7-chloro-1,2,3,4-tetrahydroquinolin-1-yl)ethyl]thiophen-2-yl}formamido)-3-cyclopentyl-N-cyclopropylpropanamide], for which the IC50 came to 16 nM.

As for `C[C@H](c1ccc(C(=O)N[C@@H](CC2CCCC2)C(=O)NC2CC2)s1)N1CCCc2ccc(Cl)cc21` [Compound 249, (2S)-2-({5-[(1R)-1-(7-chloro-1,2,3,4-tetrahydroquinolin-1-yl)ethyl]thiophen-2-yl}formamido)-3-cyclopentyl-N-cyclopropylpropanamide], the IC50 was determined as 156 nM.

As to `O=C(N[C@@H](CC1CCCC1)C(=O)NC1CC1)c1ccc([C@@H]2CCc3c(Cl)cccc3N2)s1` [Compound 250, (2S)-2-({5-[(2S)-5-chloro-1,2,3,4-tetrahydroquinolin-2-yl]thiophen-2-yl}formamido)-3-cyclopentyl-N-cyclopropylpropanamide], the IC50 is 301 nM.

Regarding `O=C(N[C@@H](CC1CCCC1)C(=O)NC1CC1)c1ccc([C@H]2CCc3c(Cl)cccc3N2)s1` [Compound 251, (2S)-2-({5-[(2R)-5-chloro-1,2,3,4-tetrahydroquinolin-2-yl]thiophen-2-yl}formamido)-3-cyclopentyl-N-cyclopropylpropanamide], the IC50 turned out to be 678 nM.

For the compound `Cc1cc(NC(=O)[C@H](CC2CCCCC2)NC(=O)c2ccc([C@H](C)Nc3cc(Cl)cnc3C)s2)ccn1` [Compound 252, (2S)-2-({5-[(1S)-1-[(5-chloro-2-methylpyridin-3-yl)amino]ethyl]thiophen-2-yl}formamido)-3-cyclohexyl-N-(2-methylpyridin-4-yl)propanamide], the IC50 is 8 nM. In the case of `Cc1ncc(Cl)cc1N[C@@H](C)c1ccc(C(=O)NC2Cc3ccccc3NC2=O)s1` (stereo partly drawn) [Compound 253, 5-[(1S)-1-[(5-chloro-2-methylpyridin-3-yl)amino]ethyl]-N-(2-oxo-1,2,3,4-tetrahydroquinolin-3-yl)thiophene-2-carboxamide], the IC50 was > 10000 nM.

On to `COc1ccc(Cl)cc1N[C@@H](C)c1ccc(C(=O)N[C@@H](CC2CCCC2)C(=O)NC2CC2)s1` [Compound 254, (2S)-2-({5-[(1S)-1-[(5-chloro-2-methoxyphenyl)amino]ethyl]thiophen-2-yl}formamido)-3-cyclopentyl-N-cyclopropylpropanamide], for which the 50% inhibitory concentration (IC50) is 11 nM. `Cc1ncc(Cl)cc1N[C@@H](C)c1ccc(C(=O)N[C@H](CC23CCC(CC2)CC3)C(=O)NC2CC2)s1` [Compound 255, (2R)-3-{bicyclo[2.2.2]octan-1-yl}-2-({5-[(1S)-1-[(5-chloro-2-methylpyridin-3-yl)amino]ethyl]thiophen-2-yl}formamido)-N-cyclopropylpropanamide]: the IC50 is 4870 nM.

Turning to `Cc1ncc(Cl)cc1N[C@@H](C)c1ccc(C(=O)N[C@@H](CC23CCC(CC2)CC3)C(=O)NC2CC2)s1` [Compound 256, (2S)-3-{bicyclo[2.2.2]octan-1-yl}-2-({5-[(1S)-1-[(5-chloro-2-methylpyridin-3-yl)amino]ethyl]thiophen-2-yl}formamido)-N-cyclopropylpropanamide], the IC50 amounted to 6 nM. For `Cc1ncc(Cl)cc1N[C@@H](C)c1ccc(C(=O)N[C@@H](CC2CCCC2)C(=O)NC23CCC(CC2)CC3)s1` [Compound 257, (2S)-N-{bicyclo[2.2.2]octan-1-yl}-2-({5-[(1S)-1-[(5-chloro-2-methylpyridin-3-yl)amino]ethyl]thiophen-2-yl}formamido)-3-cyclopentylpropanamide], the IC50 amounted to 8 nM. With `Cc1ncc(Cl)cc1N[C@@H](C)c1ccc(C(=O)N[C@@H](CC2CCCC2)C(=O)N[C@@H]2CC[C@H](F)C2)s1` [Compound 258, (2S)-2-({5-[(1S)-1-[(5-chloro-2-methylpyridin-3-yl)amino]ethyl]thiophen-2-yl}formamido)-3-cyclopentyl-N-[(1R,3S)-3-fluorocyclopentyl]propanamide], the IC50 was 7 nM. For the compound `C[C@@H](Nc1cc(Cl)nc2ccnn12)c1ccc(C(=O)N[C@@H](CC2CCCC2)C(=O)NC2CC2)s1` [Compound 259, (2S)-2-({5-[(1R)-1-({5-chloropyrazolo[1,5-a]pyrimidin-7-yl}amino)ethyl]thiophen-2-yl}formamido)-3-cyclopentyl-N-cyclopropylpropanamide], the IC50 amounted to 13 nM. `C[C@H](Nc1cc(Cl)nc2ccnn12)c1ccc(C(=O)N[C@@H](CC2CCCC2)C(=O)NC2CC2)s1` [Compound 260, (2S)-2-({5-[(1S)-1-({5-chloropyrazolo[1,5-a]pyrimidin-7-yl}amino)ethyl]thiophen-2-yl}formamido)-3-cyclopentyl-N-cyclopropylpropanamide]: the IC50 was 210 nM.

Turning to `Cc1ncc(Cl)cc1N[C@H](Cc1ccccc1)c1ccc(C(=O)N[C@@H](CC2CCCC2)C(=O)NC2CC2)s1` [Compound 261, (2S)-2-({5-[(1R)-1-[(5-chloro-2-methylpyridin-3-yl)amino]-2-phenylethyl]thiophen-2-yl}formamido)-3-cyclopentyl-N-cyclopropylpropanamide], the IC50 worked out at 40 nM. For the compound `Cc1ncc(Cl)cc1N[C@@H](Cc1ccccc1)c1ccc(C(=O)N[C@@H](CC2CCCC2)C(=O)NC2CC2)s1` [Compound 262, (2S)-2-({5-[(1S)-1-[(5-chloro-2-methylpyridin-3-yl)amino]-2-phenylethyl]thiophen-2-yl}formamido)-3-cyclopentyl-N-cyclopropylpropanamide], the IC50 is 6 nM. Turning to `Cc1ncc(Cl)cc1N[C@@H](C)c1ccc(C(=O)N[C@@H](CC2CCCC2)C(=O)NC2CCC(O)C2)s1` (stereo partly drawn) [Compound 263, (2S)-2-({5-[(1S)-1-[(5-chloro-2-methylpyridin-3-yl)amino]ethyl]thiophen-2-yl}formamido)-3-cyclopentyl-N-(3-hydroxycyclopentyl)propanamide], the IC50 came out at 13 nM. Take `CCNC(=O)[C@H](CC1CCCCC1)NC(=O)c1ccc([C@H](C)Nc2cc(Cl)cnc2C)s1` [Compound 264, (2S)-2-({5-[(1S)-1-[(5-chloro-2-methylpyridin-3-yl)amino]ethyl]thiophen-2-yl}formamido)-3-cyclohexyl-N-ethylpropanamide]: the IC50 was determined as 7 nM. `CNC(=O)[C@H](CC1CCCCC1)NC(=O)c1ccc([C@H](C)Nc2cc(Cl)cnc2C)s1` [Compound 265, (2S)-2-({5-[(1S)-1-[(5-chloro-2-methylpyridin-3-yl)amino]ethyl]thiophen-2-yl}formamido)-3-cyclohexyl-N-methylpropanamide]: the half-inhibitory concentration (IC50) came to 8 nM. `Cc1ncc(Cl)cc1NC(C)(C)c1ccc(C(=O)N[C@@H](CC2CCCC2)C(=O)NC23CC(C#N)(C2)C3)s1` [Compound 266, (2S)-2-[(5-{2-[(5-chloro-2-methylpyridin-3-yl)amino]propan-2-yl}thiophen-2-yl)formamido]-N-{3-cyanobicyclo[1.1.1]pentan-1-yl}-3-cyclopentylpropanamide]: the 50% inhibitory concentration (IC50) is 20 nM. `COc1cccc(-c2ncc(Cl)cc2N[C@@H](C)c2ccc(C(=O)N[C@@H](CC3CCCC3)C(=O)NC3CC3)s2)c1` [Compound 267, (2S)-2-({5-[(1S)-1-{[5-chloro-2-(3-methoxyphenyl)pyridin-3-yl]amino}ethyl]thiophen-2-yl}formamido)-3-cyclopentyl-N-cyclopropylpropanamide]: the IC50 is 10 nM. Consider `COc1cccc(-c2ncc(Cl)cc2N[C@H](C)c2ccc(C(=O)N[C@@H](CC3CCCC3)C(=O)NC3CC3)s2)c1` [Compound 268, (2S)-2-({5-[(1R)-1-{[5-chloro-2-(3-methoxyphenyl)pyridin-3-yl]amino}ethyl]thiophen-2-yl}formamido)-3-cyclopentyl-N-cyclopropylpropanamide], for which the IC50 worked out at 482 nM. For `C[C@H](Nc1cc(Cl)cnc1C(=O)O)c1ccc(C(=O)N[C@@H](CC2CCCC2)C(=O)NC2CC2)s1` [Compound 269, 5-chloro-3-{[(1S)-1-(5-{[(1S)-2-cyclopentyl-1-(cyclopropylcarbamoyl)ethyl]carbamoyl}thiophen-2-yl)ethyl]amino}pyridine-2-carboxylic acid], the IC50 turned out to be 14 nM. Regarding `Cc1cc(NC(=O)[C@H](CC2CCCC2)NC(=O)c2ccc(C(C)(C)Nc3cc(Cl)cnc3C)s2)ccn1` [Compound 270, (2S)-2-[(5-{2-[(5-chloro-2-methylpyridin-3-yl)amino]propan-2-yl}thiophen-2-yl)formamido]-3-cyclopentyl-N-(2-methylpyridin-4-yl)propanamide], the IC50 was found to be 6 nM.

For `Cc1ncc(Cl)cc1N[C@@H](C)c1ccc(C(=O)N[C@@H](CC2CCCC2)C(=O)NCCF)s1` [Compound 271, (2S)-2-({5-[(1S)-1-[(5-chloro-2-methylpyridin-3-yl)amino]ethyl]thiophen-2-yl}formamido)-3-cyclopentyl-N-(2-fluoroethyl)propanamide], the IC50 turned out to be 10 nM. Under `Cc1ncc(Cl)cc1N[C@@H](C)c1ccc(C(=O)N[C@@H](C[C@H]2CCC3C[C@@H]32)C(=O)NC2CC2)s1` (stereo partly drawn) [Compound 272, (2S)-3-[(2R)-bicyclo[3.1.0]hexan-2-yl]-2-({5-[(1S)-1-[(5-chloro-2-methylpyridin-3-yl)amino]ethyl]thiophen-2-yl}formamido)-N-cyclopropylpropanamide] stands 14 nM; under `C[C@@H](Nc1cc(Cl)cnc1C(=O)O)c1ccc(C(=O)N[C@@H](CC2CCCC2)C(=O)NC2CC2)s1` [Compound 274, 5-chloro-3-{[(1R)-1-(5-{[(1S)-2-cyclopentyl-1-(cyclopropylcarbamoyl)ethyl]carbamoyl}thiophen-2-yl)ethyl]amino}pyridine-2-carboxylic acid], 811 nM. For `Cc1ncc(Cl)cc1NC(C)(C)c1ccc(C(=O)N[C@@H](CC2CCCC2)C(=O)N[C@H]2C[C@H](F)C2)s1` [Compound 275, (2S)-2-[(5-{2-[(5-chloro-2-methylpyridin-3-yl)amino]propan-2-yl}thiophen-2-yl)formamido]-3-cyclopentyl-N-[(1r,3r)-3-fluorocyclobutyl]propanamide], the IC50 is 10 nM.
